Assay results from patent US20240116962A1, “PYRIDINE-2-AMINE DERIVATIVE AND PHARMACEUTICAL COMPOSITION AND USE THEREOF” (TSINGHUA UNIVERSITY, priority 2020, published 2024).
Like-named read-outs stand apart in the source and are kept apart here.

Key:
[1] = target: T1, hTLR7 (Homo sapiens, UniProt Q9NYK1); test: EC50 assay for small molecule agonists, HEK-Blue hTLR7 cells, SEAP readout; format: cell-based; settings: agonist activity, nd = EC50 larger than 25 μM
T1 construct: host or cells: HEK-Blue hTLR7 (HEK293-derived reporter cells with SEAP read-out)
T1 sequence (Q9NYK1 27-1049): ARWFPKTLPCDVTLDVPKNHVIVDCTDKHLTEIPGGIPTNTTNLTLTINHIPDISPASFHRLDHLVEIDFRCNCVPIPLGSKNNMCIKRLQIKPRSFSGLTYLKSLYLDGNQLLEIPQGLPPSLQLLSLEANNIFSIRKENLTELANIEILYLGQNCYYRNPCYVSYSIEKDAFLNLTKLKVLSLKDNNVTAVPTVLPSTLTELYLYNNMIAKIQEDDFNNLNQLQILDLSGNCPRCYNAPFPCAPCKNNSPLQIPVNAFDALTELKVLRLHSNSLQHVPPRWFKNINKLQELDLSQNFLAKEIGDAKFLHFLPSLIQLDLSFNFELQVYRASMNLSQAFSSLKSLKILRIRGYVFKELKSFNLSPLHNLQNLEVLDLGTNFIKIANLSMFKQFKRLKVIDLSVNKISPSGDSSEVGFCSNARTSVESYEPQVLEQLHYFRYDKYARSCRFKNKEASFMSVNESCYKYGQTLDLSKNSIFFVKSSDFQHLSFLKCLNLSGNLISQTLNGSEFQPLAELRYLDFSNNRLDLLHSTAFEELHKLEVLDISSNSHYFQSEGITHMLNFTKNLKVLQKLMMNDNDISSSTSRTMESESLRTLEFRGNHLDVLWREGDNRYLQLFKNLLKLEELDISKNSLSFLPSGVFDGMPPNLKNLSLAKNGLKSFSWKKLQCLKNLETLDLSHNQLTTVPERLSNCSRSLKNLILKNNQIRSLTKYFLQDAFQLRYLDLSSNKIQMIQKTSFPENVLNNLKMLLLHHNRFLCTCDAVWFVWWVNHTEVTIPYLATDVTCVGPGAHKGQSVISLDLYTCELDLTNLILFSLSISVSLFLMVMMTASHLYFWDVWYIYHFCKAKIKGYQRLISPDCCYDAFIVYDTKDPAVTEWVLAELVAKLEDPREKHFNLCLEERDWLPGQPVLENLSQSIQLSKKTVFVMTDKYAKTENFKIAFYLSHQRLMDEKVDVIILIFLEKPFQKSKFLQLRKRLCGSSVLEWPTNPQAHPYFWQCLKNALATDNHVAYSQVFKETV
Protocol: (§1) Reagents used for cell culture and detection for HEK-Blue™ hTLR7, HEK-Blue™ hTLR8 and control HEK-Blue Nu112k were as follows: DMEM (4.5 g/L glucose), bovine serum FBS, streptomycin ([…]), penicillin (50 U/mL), Blasticidin (10 mg/mL), Zeocin™ (10 mg/mL), Normocin (50 mg/mL), and HEK-Blue™ Detection. Basal medium was as follows: DMEM +10% FBS+streptomycin+penicillin+Normocin ([…]); selective medium for resistance genes was as follows: DMEM+10% FBS+streptomycin+penicillin+Normocin (1001 μg/mL)+Blasticidin (1001 μg/mL)+Zeocin™ (1001 μg/mL).
(§2) Cell preparation: HEK-Blue™ hTLR7 and HEK-Blue™ hTLR8 cell lines were purchased from Invivogen. The cells frozen in liquid nitrogen were taken, quickly placed in a water bath at 37° C., shaken occasionally, and completely melted within 1 min. The cells were transferred to 15 mL of pre-heated basal medium and resuspended; centrifuged at 1,000 r/min for 5 min, supernatant discarded; resuspended with 1 mL of basal medium, transferred to a T25 culture flask, supplemented to 5 mL with the medium, and incubated in an incubator at 37° C.; after stable passage twice, and subjected to selective antibiotic screening: HEK-Blue™ hTLR7 or HEK-Blue™ hTLR8: 100 μg/mL Zeocin+Blasticidin (30 μg/mL), HEK-Blue Nu112-k: 100 μg/mL Zeocin. The fluid was changed 3 times a week. When the number of cells reached 70%-80%, PBS was added, and the cells were exfoliated by gently pipetting.
(§3) Activity assay steps: (1) adding a test sample to a 96-well plate at 20 μL/well (triplicate wells were set); (2) adding 20 μL of positive control (e.g., R848), and adding 20 μL of negative control (e.g., ddH2O); (3) removing a T75 culture flask from the incubator, discarding the medium, adding 5-10 mL of pre-heated PBS, and gently pipetting the cells; adding 2-5 mL of PBS to the culture flask, incubating the culture flask in the incubator for 1-2 min, and then gently pipetting the cells to make them exfoliated; (4) mixing the mixture well, and counting the cells, without centrifugation; resuspending the cells with HEK-Blue™ assay solution and adjusting the cell number, taking care not to incubate for a long time to avoid too deep background or false positive. HEK-Blue hTLR cell number was about 2.2×10^5/mL, 180 μL/well (about 40000 cells), and HEK-Blue Nu112-k cell number was about 2.8×10^5/mL, 180 μL/well (about 50000 cells). (5) incubating the cells in the incubator at 37° C. for 6-16 h, and detecting at 620-655 nm for SEAP readings.
(§4) Effect %=(mean OD of the administration group−mean OD of the H2O group at each concentration)/(mean ODmax of the positive drug group−mean OD of the H2O group)×100. EC50 was calculated by fitting Lg [concentration]-effect curves using GraphPad Prism5 software.
(§5) Experimental results: the concentration for 50% of maximal effect (EC50) refers to a corresponding concentration of small molecules that can cause 50% of the maximal agonistic effect. […] EC50 represents a potency for agonizing the TLR8 receptor, with smaller values indicating better efficacy. […] In the following table, the unit of the agonist activity is nanomole, unless otherwise specified.

[2] = target: T2, hTLR8 (Homo sapiens, UniProt Q9NR97); test: EC50 assay for small molecule agonists, HEK-Blue hTLR8 cells, SEAP readout; format: cell-based
T2 construct: host or cells: HEK-Blue hTLR8 (HEK293-derived reporter cells with SEAP read-out)
T2 sequence (Q9NR97 27-1041): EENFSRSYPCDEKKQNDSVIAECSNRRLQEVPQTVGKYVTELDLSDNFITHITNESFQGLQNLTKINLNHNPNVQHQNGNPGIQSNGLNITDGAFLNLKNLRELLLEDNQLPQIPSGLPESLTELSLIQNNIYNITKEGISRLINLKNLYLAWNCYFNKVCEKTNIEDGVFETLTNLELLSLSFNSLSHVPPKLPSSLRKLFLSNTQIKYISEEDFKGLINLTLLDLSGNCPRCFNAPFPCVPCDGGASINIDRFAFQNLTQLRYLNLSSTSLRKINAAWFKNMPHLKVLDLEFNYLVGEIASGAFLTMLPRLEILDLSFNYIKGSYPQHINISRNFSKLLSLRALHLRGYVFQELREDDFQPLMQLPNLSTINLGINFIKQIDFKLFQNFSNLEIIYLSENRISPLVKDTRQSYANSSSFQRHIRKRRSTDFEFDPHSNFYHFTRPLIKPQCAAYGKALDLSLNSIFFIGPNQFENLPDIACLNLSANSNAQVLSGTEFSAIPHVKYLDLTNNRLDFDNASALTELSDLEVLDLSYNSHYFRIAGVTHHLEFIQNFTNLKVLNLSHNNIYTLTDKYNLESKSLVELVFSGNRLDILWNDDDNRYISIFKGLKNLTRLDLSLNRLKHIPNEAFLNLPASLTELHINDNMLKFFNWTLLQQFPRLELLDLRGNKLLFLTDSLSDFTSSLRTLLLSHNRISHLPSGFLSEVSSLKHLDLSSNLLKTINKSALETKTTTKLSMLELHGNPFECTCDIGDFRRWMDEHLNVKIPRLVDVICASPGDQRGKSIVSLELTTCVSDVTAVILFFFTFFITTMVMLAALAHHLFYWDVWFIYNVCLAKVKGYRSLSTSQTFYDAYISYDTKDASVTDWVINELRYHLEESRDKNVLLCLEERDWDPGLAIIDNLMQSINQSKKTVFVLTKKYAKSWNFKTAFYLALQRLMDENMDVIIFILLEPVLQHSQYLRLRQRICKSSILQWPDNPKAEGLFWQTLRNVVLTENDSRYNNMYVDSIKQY
Protocol: as §1, §2, §3, §4, §5

[3] = agonist activity, read-out: hTLR8(EC50)

SMILES	EC50 [1] [nM]	EC50 [2, 3] [nM]	EC50 ([2]; read-out: concentration for 50% of maximal effect (EC50) hTLR8) [nM]
CCCCCc1cc(Cc2ccc(CN(C)C)cc2F)c(C)nc1N [Compound N23]	> 25000	80	
CCCCCc1cc(Cc2ccc(CN(C)C)cc2OC(C)=O)c(C)nc1N [Compound N50]	> 25000	105	
CCCCCc1cc(Cc2ccc(COC)cc2)c(C)nc1N [Compound N27]	> 25000	> 4000	
CCCCCc1cc(Cc2ccc(CN3CCCC3)cc2OC)c(C)nc1N [Compound N43]	> 25000	102	
CCCCCc1cc(Cc2ccc(CN3CCCCC3)cc2)c(C)nc1N [Compound N9]	> 25000	54	40
COCCCc1cc(Cc2ccc(CN3CCCC3)cc2)c(C)nc1N [Compound N29]	> 25000	> 4000	
CCCCCc1cc(Cc2ccc(C(=O)N3CCCC3)cc2)c(C)nc1N [Compound N39]	> 25000	> 4000	
CCCCCc1cc(Cc2ccc(CN3CC4(COC4)C3)cc2)c(C)nc1N [Compound N22]	> 25000	81	
CCCCCc1cc(Cc2ccccc2CN2CCOCC2)c(C)nc1N [Compound N36]	> 25000	> 4000	
CCCCCc1cc(Cc2ccc(CN(C)C)cc2O)c(C)nc1N [Compound N46]	> 25000	351	
CCCCCc1cc(Cc2ccc(CN3CCN(C)CC3)cc2OC)c(C)nc1N [Compound N45]	> 25000	166	

The remaining lines, values ahead:

EC50 [1] [nM]	EC50 [2, 3] [nM]	EC50 ([2]; read-out: concentration for 50% of maximal effect (EC50) hTLR8) [nM]	SMILES
> 25000	40		CCCCNc1cc(Cc2ccc(CN3CC4(COC4)C3)cc2F)c(C)nc1N [Compound N58]
> 25000	> 4000		CCCCCc1cc(Cc2ccc(CN(C)CC(=O)O)cc2)c(C)nc1N [Compound N14]
> 25000	> 4000		CCCCCc1cc(Cc2ccc(C(=O)N3CCOCC3)cc2)c(C)nc1N [Compound N40]
> 25000	> 4000		CCCCCc1cc(Cc2ccc(CN(C)CCC(=O)O)cc2)c(C)nc1N [Compound N16]
> 25000	290		CCCCCc1cc(Cc2cccc(CN(C)C)c2)c(C)nc1N [Compound N32]
> 25000	628		CCCCCc1cc(Cc2ccc(CN(C)CCC(=O)OC)cc2)c(C)nc1N [Compound N15]
> 25000	627		CCCCCc1cc(Cc2ccc(CN3CCN(C)CC3)cc2O)c(C)nc1N [Compound N49]
> 25000	109		CCCCCc1cc(Cc2ccc(CN3CCCCCC3)cc2)c(C)nc1N [Compound N12]
> 25000	151		CCCCCc1cc(Cc2ccc(CN3CCN(C)CC3)cc2)c(C)nc1N [Compound N11]
> 25000	473		CCCCCc1cc(Cc2ccc(CN3CCCC3)cc2O)c(C)nc1N [Compound N47]
> 25000	> 4000		CCCCCc1cc(Cc2ccc(C(=O)N3CCN(C)CC3)cc2)c(C)nc1N [Compound N41]
> 25000	28		CCCCNc1cc(Cc2ccc(CN3CCCC3)cc2)c(C)nc1N [Compound N56]
> 25000	1580		CCCCCc1cc2nc(Cc3ccc(CN4CCOCC4)cc3)ccc2nc1N [Compound N3]
